Measured values from patent US20080022467A1, “Disazo dyes and their preparation and use” (ILFORD Imaging Switzerland GmbH, priority 2006, published 2008).

Assays:
[1] = Stability against degradation by ozone of printed patches; type: physicochemical; design: key: A: excellent; B: good; C: satisfactory; D: unsatisfactory; settings: ozone 1 ppm, 30° C., 50% relative humidity; for Resistance against Degradation by Ozone (Class) on Recording Sheet C: C: ILFORD Galerie Smooth Glossy (nanoporous); for Resistance against Degradation by Ozone (Class) on Recording Sheet D: D: ILFORD Printasia Premium Photo Glossy Paper (nanoporous); for Resistance against Degradation by Ozone (Class) on Recording Sheet F: F: EPSON Premium Glossy Photo Paper (nanoporous); for Resistance against Degradation by Ozone (Class) on Recording Sheet G: G: CANON Photo Paper Pro PR-101 (nanoporous)
Experimental: (§1) The present invention, as far as it relates to recording liquids, is illustrated by the following examples using the disazo dyes of Table 1 according to the invention and dyes representing the state of the art. For each dye, 100 g of recording liquid were prepared by heating the necessary amount of dye (2.0 g-5.0 g), 6.0 g of ethylene glycol, 3.0 g of propylene-1,2-glycol, 3.0 g of 1-methyl-2-pyrrolidone, 0.3 g of an aqueous solution (50%) of Olin® 10G (available from Arch Chemicals Inc., Norwalk, USA), 0.3 g of Surfinol® 465 (available from Air Products and Chemicals Inc., Allentown, USA) and 0.1 g of Mergal® K 10N (available from Riedel-de-Haën, Seelze, Germany) together with water at a temperature of 50° C. under stirring for approximately 1 hour. The resulting solution was cooled down to a temperature of 20° C., its value of pH was adjusted to 7.5 and the solution was passed through a Millipore® filter of 0.3 μm pore diameter. The dye quantity was adjusted in such a way that the optical density of the printed image was similar for all dyes.
(§2) Homogeneously colored square patches with an approximate density of 1.40 were then printed, using these recording liquids, with an ink jet printer Canon BJC 8500 onto the following recording sheets: • A: HP Printing Paper HPP 1122 (paper) • B: HP Premium Plus (polymer based recording sheet) • C: ILFORD Galerie Smooth Glossy (nanoporous recording sheet) • D: ILFORD Printasia Premium Photo Glossy Paper (nanoporous recording sheet) • E: ILFORD Galerie Classic Gloss Paper (polymer based recording sheet) • F: EPSON Premium Glossy Photo Paper (nanoporous recording sheet) • G: CANON Photo Paper Pro PR-101 (nanoporous recording sheet)
The optical density of the colored square patches was measured with a Spectrolino® densitometer. Afterwards, the printed samples were stored for a predetermined time (for example 48 hours) in an ozone chamber, model 903 (available from Satra/Hampden, Great Britain) at a temperature of 30° C., a relative humidity of the air of 50% and an ozone concentration of 1 ppm at a velocity of the circulating, ozone containing air of 13 mm/s. After storage, the samples were re-measured. The density differences of these two measurements, expressed as per cent of the initial density, are an indication of the amount of dye loss due to the exposure to ozone.

[2] = Light stability of printed patches (Weather-Ometer, xenon lamp); type: physicochemical; design: key to Light Stability (Class) on Recording Sheet A / Light Stability (Class) on Recording Sheet B / Light Stability (Class) on Recording Sheet C / Light Stability (Class) on Recording Sheet D / Light Stability (Class) on Recording Sheet E / Light Stability (Class) on Recording Sheet F / Light Stability (Class) on Recording Sheet G: A: excellent; B: good; C: satisfactory; D: unsatisfactory; settings: for Light Stability (Class) on Recording Sheet A: A: HP Printing Paper HPP 1122 (paper), 20° C., 50% relative humidity; for Light Stability (Class) on Recording Sheet A / Light Stability (Class) on Recording Sheet B / Light Stability (Class) on Recording Sheet C / Light Stability (Class) on Recording Sheet D / Light Stability (Class) on Recording Sheet E / Light Stability (Class) on Recording Sheet F / Light Stability (Class) on Recording Sheet G: 20 megalux hours; for Light Stability (Class) on Recording Sheet B: B: HP Premium Plus (polymer based); for Light Stability (Class) on Recording Sheet C: C: ILFORD Galerie Smooth Glossy (nanoporous); for Light Stability (Class) on Recording Sheet D: D: ILFORD Printasia Premium Photo Glossy Paper (nanoporous); for Light Stability (Class) on Recording Sheet E: E: ILFORD Galerie Classic Gloss Paper (polymer based); for Light Stability (Class) on Recording Sheet F: F: EPSON Premium Glossy Photo Paper (nanoporous); for Light Stability (Class) on Recording Sheet G: G: CANON Photo Paper Pro PR-101 (nanoporous); for light stability on all recording sheets (in words): summary of Table 4
Experimental: as §1, §2
The printed samples were irradiated using a Weather-Ometer® Ci35A (available from Atlas Material Testing Technology, Chicago, USA) with a 6500 W xenon lamp at a temperature of 20° C. and relative humidity of 50% until an illumination of 20 megalux hours was reached. The density loss was measured with a densitometer Spectrolino®. The percent density loss of initial density gives an indication of the light stability of the dyes on the printed recording sheet.

Molecule	Resistance against Degradation by Ozone (Class) on Recording Sheet C [1]	Resistance against Degradation by Ozone (Class) on Recording Sheet D [1]	Resistance against Degradation by Ozone (Class) on Recording Sheet F [1]	Resistance against Degradation by Ozone (Class) on Recording Sheet G [1]	Light Stability (Class) on Recording Sheet A [2]	Light Stability (Class) on Recording Sheet B [2]	Light Stability (Class) on Recording Sheet C [2]	Light Stability (Class) on Recording Sheet D [2]	Light Stability (Class) on Recording Sheet E [2]	Light Stability (Class) on Recording Sheet F [2]	Light Stability (Class) on Recording Sheet G [2]	light stability on all recording sheets (in words) [2]
O=S(=O)([O-])CCCSc1nc(Nc2ccc(N=Nc3ccc4cc(S(=O)(=O)[O-])cc(S(=O)(=O)[O-])c4c3)cc2)nc(Nc2ccc(N=Nc3ccc4cc(S(=O)(=O)[O-])cc(S(=O)(=O)[O-])c4c3)cc2)n1.[Na+].[Na+].[Na+].[Na+].[Na+] [Dye No. 15]	B	A	A	A	B	A	B	B	B	B	B	–
CN(CCS(=O)(=O)[O-])c1nc(Nc2ccc(N=Nc3cc(S(=O)(=O)[O-])c4cccc(S(=O)(=O)[O-])c4c3)cc2)nc(Nc2ccc(N=Nc3cc(S(=O)(=O)[O-])c4cccc(S(=O)(=O)[O-])c4c3)cc2)n1.[Na+].[Na+].[Na+].[Na+].[Na+] [Dye No. 14]	A	A	A	A	B	A	A	B	B	B	B	–
O=S(=O)([O-])CCCSc1nc(Nc2ccc(N=Nc3cc(S(=O)(=O)[O-])c4cccc(S(=O)(=O)[O-])c4c3)cc2)nc(Nc2ccc(N=Nc3cc(S(=O)(=O)[O-])c4cccc(S(=O)(=O)[O-])c4c3)cc2)n1.[Na+].[Na+].[Na+].[Na+].[Na+] [Dye No. 10]	A	A	A	A	B	A	A	B	B	B	B	–
O=S(=O)([O-])CCNc1nc(Nc2ccc(N=Nc3ccc4cc(S(=O)(=O)[O-])cc(S(=O)(=O)[O-])c4c3)cc2)nc(Nc2ccc(N=Nc3ccc4cc(S(=O)(=O)[O-])cc(S(=O)(=O)[O-])c4c3)cc2)n1.[Na+].[Na+].[Na+].[Na+].[Na+] [Dye No. 16]	A	A	A	A	B	A	B	B	B	B	B	–
O=C([O-])c1cc(Nc2nc(Nc3ccc(N=Nc4cc(S(=O)(=O)[O-])c5cccc(S(=O)(=O)[O-])c5c4)cc3)nc(Nc3ccc(N=Nc4cc(S(=O)(=O)[O-])c5cccc(S(=O)(=O)[O-])c5c4)cc3)n2)cc(C(=O)[O-])c1.[Na+].[Na+].[Na+].[Na+].[Na+].[Na+] [Dye No. 18]	A	A	A	A	B	A	B	B	B	B	B	–

Continued, in another order:

Resistance against Degradation by Ozone (Class) on Recording Sheet C [1]	Resistance against Degradation by Ozone (Class) on Recording Sheet D [1]	Resistance against Degradation by Ozone (Class) on Recording Sheet F [1]	Resistance against Degradation by Ozone (Class) on Recording Sheet G [1]	Light Stability (Class) on Recording Sheet A [2]	Light Stability (Class) on Recording Sheet B [2]	Light Stability (Class) on Recording Sheet C [2]	Light Stability (Class) on Recording Sheet D [2]	Light Stability (Class) on Recording Sheet E [2]	Light Stability (Class) on Recording Sheet F [2]	Light Stability (Class) on Recording Sheet G [2]	Molecule	light stability on all recording sheets (in words) [2]
D	B	C	C	C	A	B	B	B	B	B	Direct Yellow 132 [Dye No. III, reference compound]	satisfactory or even unsatisfactory light stability
A	B	A	A	B	D	B	B	B	A	A	Cc1cc(Nc2nc(NCCO)nc(Nc3ccc(/N=N/c4cc(S(=O)(=O)[O-])c5cccc(S(=O)(=O)[O-])c5c4)c(C)c3)n2)ccc1/N=N/c1cc(S(=O)(=O)[O-])c2cccc(S(=O)(=O)[O-])c2c1.[Na+].[Na+].[Na+].[Na+] [Dye No. II, Direct Yellow 86, reference compound]	satisfactory or even unsatisfactory light stability
B	A	A	A	B	A	A	B	B	B	B	CN(CCS(=O)(=O)[O-])c1nc(Nc2ccc(N=Nc3ccc4cc(S(=O)(=O)[O-])cc(S(=O)(=O)[O-])c4c3)cc2)nc(Nc2ccc(N=Nc3ccc4cc(S(=O)(=O)[O-])cc(S(=O)(=O)[O-])c4c3)cc2)n1.[Na+].[Na+].[Na+].[Na+].[Na+] [Dye No. 17]	–
A	B	A	A	A	A	B	B	B	A	B	O=S(=O)([O-])c1cc(/N=N/c2ccc(Nc3nc(NCCO)nc(Nc4ccc(/N=N/c5cc(S(=O)(=O)[O-])c6cccc(S(=O)(=O)[O-])c6c5)cc4)n3)cc2)cc2c(S(=O)(=O)[O-])cccc12.[Na+].[Na+].[Na+].[Na+] [Dye No. I, reference compound]	excellent or good light stability
